Data reported in paper PMC3355305, “Localized Dimerization and Nucleoid Binding Drive Gradient Formation by the Bacterial Cell Division Inhibitor MipZ” (Molecular Cell, 2012).
Numbering of substitutions follows the chain as printed. In names and notes the source's numbering stands.

Assays:
MipZ-D42A [1] = test: Transient kinetic analysis of mant nucleotide binding to MipZ D42A; design: species or system Caulobacter crescentus; conditions: for Kd: calculated KD = koff/kon
Text: (§1) Once released from the dimeric complex, MipZ monomers must undergo nucleotide exchange to enter the next reaction cycle (Figure 2A). To clarify the requirements for the exchange reaction, we studied the nucleotide binding kinetics of MipZ by monitoring its interaction with methylanthraniloyl (mant)-labeled ADP and ATP analogs (Figure S3). Since the mant group blocks dimer formation, our measurements specifically focused on the initial nucleotide-binding step without interference from subsequent reactions.
(§2) Figure S3. Steady-state and transient kinetic analysis of nucleotide binding to MipZ, Related to Table 2.
(§3) (A) Fluorescence emission spectra of mant-ATP. MipZ (1 µM) and/or mant-ATP (60 µM) were mixed in buffer BC containing no (+ Mg2+) or 10 mM (- Mg2+) EDTA. Emission spectra were recorded in a PC1 photon-counting spectrofluorimeter (ISS) using fluorescence resonance energy transfer (FRET) and an excitation wavelength of 290 nm.
(§4) (B) Association of MipZ with mant nucleotides.
(§5) (data not shown), necessitating the use of ADP and ATP analogues that carried a fluorescent methylanthraniloyl (mant) group attached to the 2'- or 3'-hydroxy group of the ribose moiety. Due to the bulkiness of the mant group and a critical role of these hydroxy groups in MipZ dimerization, the modified nucleotides are predicted to block dimer formation, consistent with their failure to be hydrolyzed by MipZ or mediate MipZ self-association in the SPR assay (data not shown). This circumstance allowed us to focus the measurements on the initial nucleotide binding step without interference from subsequent reactions.
(§6) Interaction of the mant group with the protein surface led to a marked increase in fluorescence (panel A). Consistent with the easy accessibility of the nucleotide-binding site and the lack of major conformational changes, the transients recorded after rapid mixing of MipZ with mant nucleotides could be fitted to single-exponential equations, indicating single-step binding reactions.
(§7) Shown is a typical curve representing the change in mant fluorescence upon binding of mant-ATP (30 µM) to MipZ (1 µM).
(§8) Fitting of the data yielded a pseudo-first order rate constant (kobs) of 4.7 s-1.
(§9) (C) Determination of the second-order association rate constants (kon). The pseudo-first order rate constants for the association of […]
(§10) determining the second-order rate constant of the association reaction. Shown is a representative graph in which the kobs values measured for mant-ATP were plotted against the corresponding mant-ATP concentrations. Fitting of the data to the linear function kobs=kon[mant-ATP]+koff yielded a value of 6.8 x 104 M-1s-1 for kon.
(§11) (D) Dissociation of mant nucleotides from MipZ. In order to determine the dissociation rate constants (koff), we monitored the displacement of mant-labeled nucleotides from MipZ by an excess of unlabeled nucleotide. All transients obtained could be fitted to single-exponential functions. Shown is a typical curve representing the change in mant fluorescence upon dissociation of mant-ATP (30 µM) from MipZ (1 µM) in the presence of 2 mM ATP. […]
(§12) […]
(§13) (Murshudov et al. 1997) for apo-MipZ in crystal form 2. Transient kinetic analysis The structure of apo-MipZ in crystal form 1 was solved Transient kinetic experiments were conducted at 30°C by multiple-wavelength anomalous diffraction (MAD), in a Hi-Tech Scientific SF-61MX stopped-flow spectro- […]

MipZ-K18Q = test: Transient kinetic analysis of mant nucleotide binding to MipZ K18Q; design: species or system Caulobacter crescentus
Text: as §1, §2, §3
(B) Association of MipZ with mant nucleotides. […]
as §6
Shown is a typical curve representing the change in mant fluorescence upon binding of mant-ATP (30 µM) to MipZ (1 µM). […]
determining the second-order rate constant of the association reaction. Shown is a representative graph in which the kobs values measured for mant-ATP were plotted against the corresponding mant-ATP concentrations. […]
as §11, with “All transients obtained could be fitted to single-exponential functions.” left out

MipZ G14V = test: Transient kinetic analysis of mant nucleotide binding to MipZ G14V; design: species or system Caulobacter crescentus; conditions: for Kd: calculated KD = koff/kon
Text: as §1, §2, §3, §4, §5, §6, §7, §8, §9, §10, §11, §12, §13

MipZ [2] = test: Transient kinetic (stopped-flow) analysis of mant nucleotide binding to wild-type MipZ; design: species or system Caulobacter crescentus; conditions: for kon: 30°C, buffer P; for Kd: calculated KD = koff/kon; for koff: displacement by excess unlabeled nucleotide
Text: as §1, §2, §3, §4, §5, §6, §7, §8, §9, §10, §11, §12, §13

MipZ K13A = test: Transient kinetic analysis of mant nucleotide binding to MipZ K13A; design: species or system Caulobacter crescentus; conditions: for Kd: calculated KD = koff/kon
Text: as §1, §2, §3, §4, §5, §6, §7, §8, §9, §10, §11, §12, §13

[3] = molecular target: the molecule itself; test: SPR; 1 mM ATPγS (printed 0.18 min-1)
[4] = molecular target: the molecule itself; test: SPR; 1 mM ATP (printed 0.83 min-1)
[5] = molecular target: the molecule itself; test: SPR; ATP; printed as 0.83 min-1
[6] = molecular target: the molecule itself; test: SPR; 1 mM ATP (printed 0.067 min-1)
[7] = molecular target: the molecule itself; test: SPR; ATP; printed as 0.067 min-1
MipZ [8] = molecular target: T1, MipZ (Caulobacter crescentus, UniProt Q9A6C9 1-278); test: SPR; ATP; SPR: buffer P2 or buffer BC (Mg2+-containing) with 2 mM nucleotide, composition not in material; EMSA: 1.25 mM nucleotide, 270 nM-5.6 uM protein, room temperature; conditions: protein: recombinant; chain copies: 2; label: biotin; blunt
T1 sequence: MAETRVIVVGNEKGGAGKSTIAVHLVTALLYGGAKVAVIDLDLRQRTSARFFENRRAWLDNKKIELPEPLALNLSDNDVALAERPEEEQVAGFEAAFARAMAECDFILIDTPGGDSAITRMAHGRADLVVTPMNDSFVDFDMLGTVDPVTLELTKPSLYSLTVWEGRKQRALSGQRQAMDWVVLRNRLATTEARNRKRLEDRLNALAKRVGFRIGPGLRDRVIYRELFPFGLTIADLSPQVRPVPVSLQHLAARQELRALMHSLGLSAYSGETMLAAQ

MipZ-D42A [9] = molecular target: T2, MipZ-D42A (Caulobacter crescentus, UniProt Q9A6C9 1-278, D42A); test: as above; conditions: protein: recombinant; chain copies: 2; label: biotin; blunt
T2 sequence: T1 sequence with D42A

MipZ-D42A [10] = molecular target: T2, MipZ-D42A; test: SPR; ATP; slower dissociation than WT; SPR: buffer P2 or buffer BC (Mg2+-containing) with 2 mM nucleotide, composition not in material; EMSA: 1.25 mM nucleotide, 270 nM-5.6 uM protein, room temperature; conditions: protein: recombinant; chain copies: 2; label: biotin (immobilized); blunt
ParB = molecular target: T3, ParB (Caulobacter crescentus, UniProt B8GW30 1-304); test: SPR; ParB alone; SPR: buffer P2 or buffer BC (Mg2+-containing) with 2 mM nucleotide, composition not in material; EMSA: 1.25 mM nucleotide, 270 nM-5.6 uM protein, room temperature; conditions: protein: recombinant; tags: none (native ParB); chain copies: 2; label: biotin (immobilized); blunt
T3 sequence: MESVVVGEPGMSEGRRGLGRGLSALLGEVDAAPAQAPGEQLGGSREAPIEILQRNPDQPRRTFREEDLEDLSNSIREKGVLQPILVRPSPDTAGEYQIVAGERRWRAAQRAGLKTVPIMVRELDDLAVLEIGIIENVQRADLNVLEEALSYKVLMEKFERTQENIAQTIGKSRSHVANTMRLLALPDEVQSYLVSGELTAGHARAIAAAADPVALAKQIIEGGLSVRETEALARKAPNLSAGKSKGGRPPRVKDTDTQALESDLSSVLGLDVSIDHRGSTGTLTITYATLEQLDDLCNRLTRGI

MipZ [11] = molecular target: T1, MipZ; test: SPR; 2 mM ATP, Mg2+; koff 1.5 min-1 (Fig S5C); SPR: buffer P2 or buffer BC (Mg2+-containing) with 2 mM nucleotide, composition not in material; EMSA: 1.25 mM nucleotide, 270 nM-5.6 uM protein, room temperature; conditions: protein: recombinant; chain copies: 2; label: biotin (immobilized); blunt

Molecule: CNc1ccccc1C(=O)O[C@H]1[C@@H](O)[C@H](n2cnc3c(N)ncnc32)O[C@@H]1COP(=O)(O)OP(=O)(O)OP(=O)(O)O [mant-ATP]
- koff (MipZ-D42A [1]): 4.5 s⁻¹
- kon (MipZ-D42A [1]): 78000 M⁻¹ s⁻¹
- Kd (MipZ-D42A [1]): 58 µM
- koff (MipZ-K18Q): 7.5 s⁻¹
- kon (MipZ-K18Q): 62000 M⁻¹ s⁻¹
- Kd (MipZ-K18Q; calculated KD = koff/kon): 121 µM
- koff (MipZ G14V): 0.2 s⁻¹
- kon (MipZ G14V): 157000 M⁻¹ s⁻¹
- Kd (MipZ G14V): 1.3 µM
- kon (MipZ [2]; WT MipZ): 68000 M⁻¹ s⁻¹
- Kd (MipZ [2]; WT MipZ): 31 µM
- koff (MipZ [2]; WT MipZ): 2.1 s⁻¹
- pseudo-first order rate constant (kobs) (MipZ [2]; mant-ATP 30 µM, MipZ 1 µM): 4.7 s⁻¹
- koff (MipZ K13A): 2.1 s⁻¹
- kon (MipZ K13A): 56000 M⁻¹ s⁻¹
- Kd (MipZ K13A): 38 µM

Molecule: CNc1ccccc1C(=O)O[C@H]1[C@@H](O)[C@H](n2cnc3c(N)ncnc32)O[C@@H]1COP(=O)(O)OP(=O)(O)O [mant-ADP]
- koff (MipZ-D42A [1]): 3.8 s⁻¹
- kon (MipZ-D42A [1]): 55000 M⁻¹ s⁻¹
- Kd (MipZ-D42A [1]): 69 µM
- koff (MipZ G14V): 0.9 s⁻¹
- kon (MipZ G14V): 205000 M⁻¹ s⁻¹
- Kd (MipZ G14V): 4.5 µM
- average lifetime (τ = 1/koff) of the MipZ⋅nucleotide complex (MipZ [2]; WT MipZ): about 0.3 s
- kon (MipZ [2]; WT MipZ): 118000 M⁻¹ s⁻¹
- Kd (MipZ [2]; WT MipZ): 26 µM
- koff (MipZ [2]; WT MipZ): 3.1 s⁻¹
- koff (MipZ K13A): 3.5 s⁻¹
- kon (MipZ K13A): 86000 M⁻¹ s⁻¹
- Kd (MipZ K13A): 41 µM

B1: MipZ (wild type), hexahistidine-tagged (natural protein)
chain: T1 sequence
- koff [3]: 0.003 s⁻¹
- koff [4]: 0.0138 s⁻¹
- koff [5]: 0.0138 s⁻¹

B2: MipZ-D42A, hexahistidine-tagged (natural protein)
chain: T1 sequence with D42A
- koff [6]: 0.00112 s⁻¹
- koff [7]: 0.00112 s⁻¹

B3: ran1 (dsDNA)
DNA 1: GAGGCAGACTAGATCTTCTAGTTCGG
DNA 2: CCGAACTAGAAGATCTAGTCTGCCTC
- binding result (MipZ [8]): binds
- binding result (MipZ-D42A [9]): binds

B4: parSWT (dsDNA)
DNA 1: GAGGCTTGTTTCACGTGAAACATCGG
DNA 2: CCGATGTTTCACGTGAAACAAGCCTC
- binding result (MipZ [8]): binds
- binding result (MipZ-D42A [9]): binds

B5: ran2 (dsDNA)
DNA 1: GTCGACAGAGTTCGCTAACATCGAGC
DNA 2: GCTCGATGTTAGCGAACTCTGTCGAC
- binding result (MipZ-D42A [10]): binds
- binding result (ParB): no binding
- binding result (MipZ [11]): binds

B6: parSmt (dsDNA)
DNA 1: GAGGCTTGTTTGAGCTCAAACATCGG
DNA 2: CCGATGTTTGAGCTCAAACAAGCCTC
- binding result (MipZ [8]): binds
- binding result (MipZ-D42A [9]): binds
